Patent US20230393140A1, “BINDING ASSAYS INVOLVING A PLURALITY OF SYNTHETIC COMPOUNDS, TARGETS, AND COUNTER TARGETS” (SRI International, priority 2020, published 2023)
Numbered stars: 1 amine (or outer) side, 2 acyl side, 3 side chain; on linkers, the order of the positions; unused ones are H or OH. Square brackets hold non-standard residues; d marks the D form. Peptide text beside a SMILES is read from it. * marks the point of attachment. 5FAM = O=C1OC2(c3ccc(O)cc3Oc3cc(O)ccc32)c2ccc(C(=O)*)cc21; NHCH2C6H4(4-CH2CONH2) = NC(=O)Cc1ccc(CN*)cc1; X1 = O=C(Cc1ccc(CN[*:1])cc1)[*:2]

Experiments:
HepG2 cells = assay: Confocal imaging of HepG2 cell uptake; format: cell-based, human
Method: More particularly, FIG. 11B illustrates cell uptake of GalNAc (positive control), two NNP hits (ASGPR-9-4 and ASGPR-9-6) and a non-hit NNP (KRAS-1-14, negative control) in HepG2 (high ASGPR expressing) verses HEK293 (low ASGPR expressing) cells lines. FIG. 11C illustrates competition uptake assay of GalNAc and two NNP hits (ASGPR-9-4 and ASGPR-9-6) in HepG2 cells after preincubation with different concentrations of asialofetuin (a naturally occurring serum protein ASGPR ligand). Decrease in cell uptake with increasing concentrations of asialofetuin indicates blocking of ASGPR-mediated uptake. FIG. 11D illustrates example confocal images 1113, 1115, 1117, 1119 of HepG2 cell uptake (scale: x20 for the images 1113, 1115, 1117 and x40 for the image 1119). FL=fluorescein label; Cell nucleus staining with DAPI (blue). No uptake with the blank sample (DMSO) is seen at 4 degrees C.

[1] = tested on: ASGPR-mediated uptake in HepG2 cells; assay: Competitive uptake assay with asialofetuin in HepG2; format: cell-based, human; conditions: test compound 0.3 μM; for Cellular uptake with 60 μM asialofetuin: 60 μM asialofetuin (200-fold excess); for Cellular uptake after pre-incubation with asialofetuin: asialofetuin 20 μM and 60 μM
Method: For the competitive uptake assay with the natural ligand of ASGPR (asialofetuin), cells were pre-incubated with 20 μM and 60 μM asialofetuin on ice or at 37 degrees C. for 1.5 hours, followed by the treatment with compounds for additional 2 hours before flow cytometric analysis as described above. The reduction of the uptake under asialofetuin competition was expressed by the percentage against the same treatment condition without asialofetuin.

ASGPR = target: T1, ASGPR (Homo sapiens, UniProt P07306); assay: MST binding affinity of resynthesized NNP hits to ASGPR; conditions: read-out: KD of ASGPR hits by MST
T1 construct: purchased R&D Systems, Inc. 4394-AS
T1 sequence (P07306 1-291): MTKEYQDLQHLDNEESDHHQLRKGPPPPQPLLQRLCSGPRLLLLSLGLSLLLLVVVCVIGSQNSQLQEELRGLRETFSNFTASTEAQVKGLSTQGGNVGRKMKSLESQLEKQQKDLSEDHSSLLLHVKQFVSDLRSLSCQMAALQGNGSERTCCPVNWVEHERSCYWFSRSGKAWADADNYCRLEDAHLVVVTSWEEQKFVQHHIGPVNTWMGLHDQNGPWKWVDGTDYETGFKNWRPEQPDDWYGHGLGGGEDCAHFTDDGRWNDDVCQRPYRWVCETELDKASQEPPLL
Method: Hit binding affinity to various targets were determined using Microscale Thermophoresis (MST). MST experiments were performed on a Monolith NT.115pico (NanoTemper Technologies GmbH, Munich, Germany). Measurements were performed at room temperature, in triplicate with incubation periods of 15, 30 and 45 minutes. […] Targets were labeled using Nanotemper Monolith 2nd Generation Protein Labeling Kits. RED-MALEIMIDE (Maleimide-647-dye) labeling kit was used for K-Ras and RED-NHS (NHS-647-dye) labeling kit was used for IL-6, IL-6R, TNFα and ASGPR. The buffer for the ASGPR contained 20 mM HEPES pH 7.4, 150 mM NaCl, 10 mM MgCl2, 2 mM CaCl2, 0.05% Pluronic F-127, and 1 mM DTT; for IL-6 contained 20 mM HEPES pH 7.4, 150 mM KCl, 10 mM MgCl2, and 0.1% Pluronic F-127; for the soluble IL-6 receptor 20 mM HEPES pH 7.4, 150 mM NaCl, 10 mM MgCl2, and 0.05% Tween-20; for K-Ras 20 mM HEPES pH 7.4, 150 mM NaCl, 10 mM MgCl2, 0.05% Tween-20 and 1 mM DTT; for TNFα 10 mM HEPES pH 7.4, 150 mM NaCl, 10 mM MgCl2, 0.05% Polysorbate-20. Triplicate data was analyzed using MO.AffinityAnalysis software (NanoTemper Technologies GmbH).

[2] = tested on: HepG2 cells (high ASGPR expressing); assay: ASGPR uptake assay, flow cytometry, HepG2; format: cell-based, human; conditions: for Internalization compared with positive control GalNAc: HepG2, flow cytometry; for Internalization (cell uptake) in HepG2: fluorescein-labeled compounds, flow cytometry, 2 hours
Method: The HEK293T (human embryonic kidney cells) and human hepatoma HepG2 cells were grown according to the protocols provided by the American Type Culture Collection (ATCC). When cells reached cell were seeded at ˜1.5×10^5 cells/well in 24-well culture plate for the uptake assay. After at least 16 hours of culture to allow cell attach and equilibrate, the compound treatment was set up for the uptake assay.
The fluorescein-labeled NNPs or fluorescein-labeled N-acetylgalactosamine (GalNAc) recognizing ASGRPR were added to wells at indicated concentrations and incubated for 2 hours. Two plates were prepared for each treatment condition, one serving as 4 degrees C. no internalization control that was kept on ice during incubation, while the second plate was incubated at 37 degrees C. to allow for energy dependent internalization. Following the incubation period, all plates were placed on ice and washed three times with ice-cold PBS/3% BSA/2 mM EDTA and then lifted with trypsin. Cells were transferred to a 96-well round bottom plates in FACS buffer. Cells were then analyzed by flow cytometry using LSR-HJ with HTS sampler (BD Biosciences, San Jose, CA, USA). Data (mean fluorescence intensities) and further analyzed using Flowjo software (BD Biosciences, San Jose, CA, USA). The internalized fraction was expressed as the difference between the corresponding 4 degrees C. and 37 degrees C. MFIs as previously described.

Row | Molecule | HepG2 cell uptake, confocal images, 4 degrees C. (HepG2 cells) | HepG2 cell uptake, confocal images, 37 degrees C. (HepG2 cells) | Cellular uptake with 60 μM asialofetuin [1] | Cellular uptake after pre-incubation with asialofetuin [1] | Kd (ASGPR) | Internalization compared with positive control GalNAc [2] | Internalization (cell uptake) in HepG2 [2]
1 | THA-(GalNAc)3-(OH)9-1,3-propanediamine-fluorescein [reference compound] | no uptake | is seen at 37 °C | mostly abolished | decreased with increasing concentrations of asialofetuin | – | – | –
2 | CC(C)C[C@H](NC(=O)[C@@H](CCCNC(=N)N)NC(=O)[C@@H](CCCCN)NC(=O)[C@@H](CCC(=O)O)NC(=O)[C@@H](Cc1ccccc1)NC(=O)Cc1ccc(CNC(=O)[C@H](Cc2ccccc2)NC(=O)[C@@H](CO)NC(=O)[C@@H](CCC(=O)O)NC(=O)[C@H]2CCCN2C(=O)[C@@H](CC(C)C)NC(=O)c2ccc3c(c2)C(=O)OC32c3ccc(O)cc3Oc3cc(O)ccc32)cc1)C(=O)NCc1ccc(CC(=O)NCC(=O)N2CCC[C@@H]2C(=O)N[C@H](CCCNC(=N)N)C(=O)N[C@H](CO)C(=O)N[C@@H](Cc2ccccc2)C(=O)NCc2ccc(CC(=O)N[C@H](Cc3ccc(O)cc3)C(=O)N[C@@H](C(=O)N3CCC[C@@H]3C(=O)N[C@H](CCCNC(=N)N)C(=O)N[C@@H](C)C(=O)NCc3ccc(CC(=O)N[C@H](CCCNC(=N)N)C(=O)N[C@H](Cc4ccccc4)C(=O)N4CCC[C@@H]4C(=O)N[C@@H](C(=O)NCC(=O)NCc4ccc(CC(=O)N[C@H](CC(C)C)C(=O)N5CCC[C@@H]5C(=O)N[C@H](CCCNC(=N)N)C(=O)N[C@@H](C(=O)NCC(=O)NCc5ccc(CC(N)=O)cc5)[C@H](C)O)cc4)C(C)C)cc3)[C@H](C)O)cc2)cc1 [ASGPR-9-6] (5FAM-[dL][dP][dE][dS]F[X1][dF][dE][dK][dR]L[X1]G[dP][dR][dS]F[X1][dY][dT][dP][dR]A[X1][dR][dF][dP][dV]G[X1][dL][dP][dR][dT]G-{NHCH2C6H4(4-CH2CONH2)}) | not at 4 °C | intracellular uptake is observed | mostly abolished | decreased with increasing concentrations of asialofetuin | 34 nM | significantly higher than uptake of the positive control GalNAc | significantly higher in HepG2 cells compared to in HEK293 cells
3 | CC(C)C[C@H](NC(=O)CNC(=O)[C@@H](Cc1c[nH]cn1)NC(=O)[C@@H](CCCNC(=N)N)NC(=O)[C@H]1CCCN1C(=O)Cc1ccc(CNC(=O)[C@H](Cc2ccccc2)NC(=O)[C@@H](CO)NC(=O)[C@@H](CCCNC(=N)N)NC(=O)[C@H]2CCCN2C(=O)CNC(=O)Cc2ccc(CNC(=O)[C@H](CC(C)C)NC(=O)[C@@H](CCCNC(=N)N)NC(=O)[C@@H](CCCCN)NC(=O)[C@@H](CCC(=O)O)NC(=O)[C@@H](Cc3ccccc3)NC(=O)Cc3ccc(CNC(=O)[C@H](Cc4ccccc4)NC(=O)[C@@H](CO)NC(=O)[C@@H](CCC(=O)O)NC(=O)[C@H]4CCCN4C(=O)[C@@H](CC(C)C)NC(=O)c4ccc5c(c4)C(=O)OC54c5ccc(O)cc5Oc5cc(O)ccc54)cc3)cc2)cc1)C(=O)NCc1ccc(CC(=O)N[C@H](CCCNC(=N)N)C(=O)N[C@H](Cc2ccccc2)C(=O)N2CCC[C@@H]2C(=O)N[C@@H](C(=O)NCC(=O)NCc2ccc(CC(=O)N[C@H](CC(C)C)C(=O)N3CCC[C@@H]3C(=O)N[C@H](CCCNC(=N)N)C(=O)N[C@@H](C(=O)NCC(=O)NCc3ccc(CC(N)=O)cc3)[C@H](C)O)cc2)C(C)C)cc1 [ASGPR-9-4] (5FAM-[dL][dP][dE][dS]F[X1][dF][dE][dK][dR]L[X1]G[dP][dR][dS]F[X1][dP][dR][dH]GL[X1][dR][dF][dP][dV]G[X1][dL][dP][dR][dT]G-{NHCH2C6H4(4-CH2CONH2)}) | – | – | mostly abolished | decreased with increasing concentrations of asialofetuin | 230 nM | significantly higher than uptake of the positive control GalNAc | significantly higher in HepG2 cells compared to in HEK293 cells
